Measured values as given in patent publication US20190309272A1, “Genetically Modified Cell Lines Including a TP53 Modification and Methods of Use” (UNIVERSITY OF SOUTH CAROLINA, priority 2018, published 2019).

Tests used:
Format in all cases: cell-based, Human
MCF7 PR WT C7 = test: Drug treatment of single cell clone PR WT C7; details: ten day drug treatment; also: unit not given here
MCF7 TP53 KO 34 B5 = test: Drug treatment of single cell clone KO 34 B5; details: ten day drug treatment; also: unit not given here
MCF7 TP53 KO 34 D4 = test: Drug treatment of single cell clone KO 34 D4; details: ten day drug treatment; also: unit not given here
MCF7 TP53 KO 34 E1 = test: Drug treatment of single cell clone KO 34 E1; details: ten day drug treatment
MCF7 PR WT G2 = test: Drug treatment of single cell clone PR WT G2; details: ten day drug treatment; also: unit not given here
MCF7 TP53 KO 56 A5 = test: Drug treatment of single cell clone KO 56 A5; details: ten day drug treatment
MCF7 WT Parental pool = test: Drug screening, resazurin, MCF7 wild type parental pool; details: for area under the curve (AUC): PR WT Pool, ten day drug treatment (Table 3); for MCF7 WT Parental pool (AUC): ten-day drug treatment, 156.25 nM to 10 μM, resazurin fluorescence
MCF7 TP53 KO 3.4 pool = test: Drug screening, resazurin, TP53 KO 3.4 pool; details: for area under the curve (AUC): KO 34 Pool, ten day drug treatment (Table 3); for TP53 KO 3.4 pool (AUC): ten-day drug treatment, 156.25 nM to 10 μM, resazurin fluorescence
MCF7 TP53 KO 56 E1 = test: Drug treatment of single cell clone KO 56 E1; details: ten day drug treatment; also: unit not given here
MCF7 TP53 KO 56 C5 = test: Drug treatment of single cell clone KO 56 C5; details: ten day drug treatment
MCF7 TP53 KO 56 A7 = test: Drug treatment of single cell clone KO 56 A7; details: ten day drug treatment; also: unit not given here
MCF7 TP53 KO 56 A6 = test: Drug treatment of single cell clone KO 56 A6; details: ten day drug treatment
MCF7 TP53 KO 56 E3 = test: Drug treatment of single cell clone KO 56 E3; details: ten day drug treatment
MCF7 PR WT B8 = test: Drug treatment of single cell clone PR WT B8; details: ten day drug treatment; also: unit not given here
MCF7 TP53 KO 56 A4 = test: Drug treatment of single cell clone KO 56 A4; details: ten day drug treatment
MCF7 TP53 KO 56 A8 = test: Drug treatment of single cell clone KO 56 A8; details: ten day drug treatment
MCF7 PR WT A8 = test: Drug treatment of single cell clone PR WT A8; details: ten day drug treatment; also: unit not given here
MCF7 TP53 KO 5.6 pool = test: Drug screening, resazurin, TP53 KO 5.6 pool; details: for area under the curve (AUC): KO 56 Pool, ten day drug treatment (Table 3); for TP53 KO 5.6 pool (AUC): ten-day drug treatment, 156.25 nM to 10 μM, resazurin fluorescence

| SMILES | area under the curve (AUC) (MCF7 PR WT C7) | area under the curve (AUC) (MCF7 TP53 KO 34 B5) | area under the curve (AUC) (MCF7 TP53 KO 34 D4) | area under the curve (AUC) (MCF7 TP53 KO 34 E1) | area under the curve (AUC) (MCF7 PR WT G2) | area under the curve (AUC) (MCF7 TP53 KO 56 A5) | area under the curve (AUC) (MCF7 WT Parental pool) | MCF7 WT Parental pool (AUC) (MCF7 WT Parental pool) | area under the curve (AUC) (MCF7 TP53 KO 3.4 pool) | TP53 KO 3.4 pool (AUC) (MCF7 TP53 KO 3.4 pool) | area under the curve (AUC) (MCF7 TP53 KO 56 E1) | area under the curve (AUC) (MCF7 TP53 KO 56 C5) | area under the curve (AUC) (MCF7 TP53 KO 56 A7) | area under the curve (AUC) (MCF7 TP53 KO 56 A6) | area under the curve (AUC) (MCF7 TP53 KO 56 E3) | area under the curve (AUC) (MCF7 PR WT B8) | area under the curve (AUC) (MCF7 TP53 KO 56 A4) | area under the curve (AUC) (MCF7 TP53 KO 56 A8) | area under the curve (AUC) (MCF7 PR WT A8) | area under the curve (AUC) (MCF7 TP53 KO 5.6 pool) | also measured |
| --- | --- | --- | --- | --- | --- | --- | --- | --- | --- | --- | --- | --- | --- | --- | --- | --- | --- | --- | --- | --- | --- |
| O=C1[O][Pt]2([NH][C@@H]3CCCC[C@H]3[NH]2)[O]C1=O [Oxaliplatin] | 0.8311 | 0.973 | 1.392 | 1.46 | 0.8186 | 1.197 | 0.9557 | 2.372 | 1.25 | 5.272 | 1.208 | 1.239 | 1.23 | 1.243 | 0.9635 | 0.7911 | 1.29 | 1.229 | 0.7779 | 1.164 | TP53 KO 5.6 pool (AUC) (MCF7 TP53 KO 5.6 pool): 5.118 |
| CC(=O)c1c(C)c2cnc(Nc3ccc(N4CCNCC4)cn3)nc2n(C2CCCC2)c1=O [Palbociclib] | 2.543 | 1.522 | 1.826 | 2.274 | 2.542 | 1.647 | 2.446 | 3.461 | 1.88 | 2.923 | 1.497 | 1.632 | 1.753 | 1.681 | 1.469 | 1.917 | 1.846 | 2.031 | 2.127 | 1.457 | TP53 KO 5.6 pool (AUC) (MCF7 TP53 KO 5.6 pool): 3.234 |
